Where “and” joins values, the source holds several entries; their conditions need not be identical. Identical values can stand only once. No end group written: not given here.
Columns and labels:
[1] = test system: TWEAK-Fn14 signalling pathway, BRV5 cells; assay: Cell-based screening of individual peptides, gene expression microarray in TWEAK-stimulated BRV5 cells; design: species or system human; conditions: 6 h; for BIRC2 mRNA expression (normalized to NARS2) / HSP90B1 mRNA expression (normalized to NARS2) / IL6 mRNA expression (normalized to NARS2) / JUN mRNA expression (normalized to NARS2) / MAP4K4 mRNA expression (normalized to NARS2) / MAPK14 mRNA expression (normalized to NARS2) / NFKB2 mRNA expression (normalized to NARS2) / TNFRSF12A mRNA expression (normalized to NARS2) / TRAF2 mRNA expression (normalized to NARS2): 450 µM
Description: Pool 1 and 5 were therefore deconstructed to assess the effect of individual peptides and their activity on same cell-based screening. Pools 1 and 5 were composed of peptides 45, 46, 42, 3, 49, 11, and 13; and of peptides 1, 9, 30, 35, 41, 43, 7, and 14, respectively. As before, and shown in Figure 4B, the level of expression of probe genes on TWEAK-stimulated (T) BRV5 cells is overall higher than on non-stimulated (NT) one. […] The structural model of peptides 43, 30, 35 and 49 bound to TWEAK can be seen in Figure 5 and Supplementary Materials Figures S4–S6, respectively.
Three different cell lines were used in this study: BRV5, MDA-MB 435 (435-P), and HT29. The BRV5 is a highly metastatic brain cell line, obtained in one of our laboratories by primary culture from a brain of a nude mouse inoculated with human 435-Br1 brain metastatic cells, as previously described and used as a model to test the peptides in cell cultures. […] The triple negative 435-P cell line is a useful human breast cancer model that expresses both epithelial and melanocytic markers, and was included as the parental cell from which 435-Br1 metastatic variant was initially originated (both cell lines kindly provided by Dr Fabra at IDIBELL Institute, Hospitalet de Llobregat, Spain). Finally, HT29 human colon carcinoma cells obtained from the European Type Culture Collection (ECACC 91072201) were used as a positive control of TWEAK dependent Fn14 over-expressing cells to evaluate TWEAK-Fn14 axis of brain metastatic variants.
Appropriate cell culture conditions were established as the controls needed in the expression of genes with and without peptides and with and without TWEAK activation, both as pools and individually (see Supplementary Materials Figure S2). The protocol started with the seeding of 125,000 cells/well in 500 µL of culture media supplemented with 10% fetal bovine serum (CM+FBS10%) in 24-well dishes for 24 h before removing FBS (CM-FBS). After overnight starvation in CM-FBS culture, different peptide treatment conditions (at final concentration of 450 µM) were established in the presence or absence of TWEAK (25 ng/mL final concentration) (Peprotech EC, Ltd., London, UK). Some cells were treated with peptides at a single, unique, initial dose (time 0) while other were treated with repeated doses to account for the effect cell-culture degradation. These include a repeated treatment every hour (i.e., […]), every two hours (time 0, 2, and 4) and every three hours (time 0 and 3)—see Supplementary Materials Figure S2 for diagrammatic depiction. At time 6 (after six hours) cells were lysed and RNA extracted for transcriptomic analyses (see next). Cell were culture for six hours as this was the time needed to achieve the highest upregulation of the TWEAK-Fn14 axis upon TWEAK treatment as shown in previous time-course RT-PCR experiments (see Figure 2).
RNA from cells was extracted 6 h after treatments by direct lysis on the well. The RNeasy Micro kit (Qiagen, Hilden, Germany) was used to isolate total RNA from cell lysate following manufacturer’s protocols including an additional step of digestion with DNase I (Qiagen, Hilden, Germany). Total RNA concentration was measured in a NanoDrop 1000 spectrophotometer (Thermo Scientific, Waltham, MA, USA). The RNA extracted from treated and untreated cells (see above) was used as a proxy for gene expression.
The quantitative RT-PCR was performed using Fluidigm Dynamic Array FlexSix array with the specific primers for gene expression (Delta Genes Assays, Wet lab tested on Dynamic Array IFC) designed to RefSeq for detection by pPCR EvaGreen assay (Dynamic Array FlexSix, Fluidigm Corporation). Each Flex Six IFC has a total of six independent partitions. Each partition has a 12 × 12 format (12 assay inlets and 12 sample inlets) and will be run independently as a separate experimental run. […]

[2] = Precipitation in SPR running buffer; assay type: physicochemical; conditions: running buffer HBS-EP pH 7.4, 6.25 µM to 800 µM, 25 °C
Protocol: (§1) After chip validation, peptides selected on our cell-based microarray screening were tested.
Binding assays were performed at 25 °C in a Biacore 3000 instrument (GE Healthcare, Uppsala, Sweden) using nitrilotriacetic (NTA) sensor chips (GE Healthcare) and HBS-EP (0.01 M HEPES pH 7.4, 0.15 M NaCl, 3 mM EDTA, 0.005 % v/v Surfactant P20) as running buffer. Histidine-tagged human TWEAK (His6-TWEAK) protein (R&D Systems, Minneapolis, MN, USA) was covalently immobilized on the sensor surface using a capture coupling method. Briefly, the NTA surface was first stabilized by injection of regeneration buffer (20 μL EDTA-containing running buffer at 20 μL/min) followed by Ni^2+ binding to the surface (40 μL of 500 μM NiCl2 in running buffer at 20 μL/min). The carboxymethyl dextran surface was then activated for primary amine coupling by injecting coupling solution (30 μL of a 1:1 N-hydroxysuccinimide (NHS)/1-ethyl-3-[3-(dimethylamino)-propyl]carbodiimide hydrochloride (EDC) mixture at 5 μL/min). […]
Binding experiments using a monoclonal anti-TWEAK antibody (Abcam ref. 199405, Cambridge, UK) were run to ascertain adequate functionalization of the immobilized surface. […] The dissociation phase was monitored for 10 min at the same flow rate and followed by a regeneration step with 10 µL of 18 mM NaOH. […]

human His6-TWEAK protein = target: T1, human His6-TWEAK protein (Homo sapiens, UniProt O43508); assay: SPR binding of peptides to immobilized His6-TWEAK; conditions: 25 °C, 1:1 Langmuir global fit, representative of at least three independent experiments
T1 construct: purchased R&D Systems
T1 sequence (O43508 97-249 limits assumed): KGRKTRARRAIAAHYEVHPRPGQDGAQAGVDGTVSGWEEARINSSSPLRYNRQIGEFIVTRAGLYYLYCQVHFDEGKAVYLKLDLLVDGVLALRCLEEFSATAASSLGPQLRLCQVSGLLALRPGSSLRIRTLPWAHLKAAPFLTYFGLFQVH
Description: SPR biosensor interaction analysis, a label-free screening approach, was used for real-time monitoring of the kinetics and affinity of peptide hits to TWEAK previously identified by cell-based screening. Peptides from pools 1 and 5 were selected both as positive (49, 30, 35 and 43) and negative hits (1 and 42). For our purposes, TWEAK was chosen as ligand, while peptides were chosen as analytes and passed across ligand-derivatized surface. Nitrilotriacetic acid-coated sensor chips (NTA chip) and a coupling approach that results in the capture of a His6-protein in a non-random orientation by the His6 epitope prior to direct free amine-based covalent coupling was used for histidine-tagged TWEAK immobilization.
as §1
For each titration, a zero-analyte surface as a control was subtracted from test sensorgram as well as non-specific binding to the blank flow cell without protein; and the chip surface was regenerated in order to remove any remaining analyte. The black curves show the experimental data, while the overlaid red lines represent a global fit of the entire data set to a 1:1 Langmurian interaction model. The fitting process provided both kinetic association and dissociation rate constants (Ka and Kd), as well as equilibrium dissociation constant (KD) values indicated in Figure 6.
Binding assays were performed at 25 °C in a Biacore 3000 instrument (GE Healthcare, Uppsala, Sweden) using nitrilotriacetic (NTA) sensor chips (GE Healthcare) and HBS-EP (0.01 M HEPES pH 7.4, 0.15 M NaCl, 3 mM EDTA, 0.005 % v/v Surfactant P20) as running buffer. Histidine-tagged human TWEAK (His6-TWEAK) protein (R&D Systems, Minneapolis, MN, USA) was covalently immobilized on the sensor surface using a capture coupling method. Briefly, the NTA surface was first stabilized by injection of regeneration buffer (20 μL EDTA-containing running buffer at 20 μL/min) followed by Ni^2+ binding to the surface (40 μL of 500 μM NiCl2 in running buffer at 20 μL/min). The carboxymethyl dextran surface was then activated for primary amine coupling by injecting coupling solution (30 μL of a 1:1 N-hydroxysuccinimide (NHS)/1-ethyl-3-[3-(dimethylamino)-propyl]carbodiimide hydrochloride (EDC) mixture at 5 μL/min). His6-TWEAK protein in pH 7.4 running buffer was then injected over the surface (60 μL of 10 μg/mL His6-TWEAK at 5 μL/min). To block uncoupled primary amines on the sensor surface, ethanolamine was passed over the surface (35 μL 1M ethanolamine at 5 μL/min). Ligand surfaces were finally conditioned with a 20 µL injection of regeneration solution containing 350 mM EDTA at 20 μL/min. Immobilization levels ranged from 1500 to 7000 resonance units (RUimmob) to test different ligand densities. A blank flow cell on the chip was created by simple injection of 20 μL of regeneration buffer injected over the sensor surface.
Binding experiments using a monoclonal anti-TWEAK antibody (Abcam ref. 199405, Cambridge, UK) were run to ascertain adequate functionalization of the immobilized surface. Selected synthetic TWEAK-Fn14 inhibitory peptides at two-fold serial dilutions from 800 µM to 0 µM in running buffer were flown over the chip for 5 min at 35 µL/min. The dissociation phase was monitored for 10 min at the same flow rate and followed by a regeneration step with 10 µL of 18 mM NaOH. Specific binding responses for each channel were obtained by double referencing; subtracting non-specific binding to the blank flow cell plus an internal reference standard, namely buffer injection response. Each sample was run in triplicate. The experimental data were fitted to a 1:1 Langmuir binding model by the BIAevaluation software version 4.1 (GE Healthcare, Uppsala, Sweden).

[3] = individual peptides, BRV5 + TWEAK, mean of replicate columns
[4] = individual peptides, BRV5 + TWEAK, replicate column 1
[5] = individual peptides, BRV5 + TWEAK, replicate column 2
[6] = individual peptides, BRV5 + TWEAK, normalized to NARS2, listed as P30

## 30: DNGGGNTDIYSE [Peptide 30]
[1]; BRV5 + TWEAK 25 ng/mL, peptides 450 µM
  regulation of probe genes by individual peptides: lowest overall expression across all genes
[1]; [3]
  BIRC2 mRNA expression (normalized to NARS2): 0.4705
  HSP90B1 mRNA expression (normalized to NARS2): 1.723
  IL6 mRNA expression (normalized to NARS2): 0.001837
  JUN mRNA expression (normalized to NARS2): 0.05309
  MAP4K4 mRNA expression (normalized to NARS2): 0.1227
  MAPK14 mRNA expression (normalized to NARS2): 0.1367
  NFKB2 mRNA expression (normalized to NARS2): 0.02657
  TNFRSF12A mRNA expression (normalized to NARS2): 0.01074
  TRAF2 mRNA expression (normalized to NARS2): 0.01042
[1]; [4]
  BIRC2 mRNA expression (normalized to NARS2): 0.46
  HSP90B1 mRNA expression (normalized to NARS2): 1.5246
  IL6 mRNA expression (normalized to NARS2): 0.001779
  JUN mRNA expression (normalized to NARS2): 0.05111
  MAP4K4 mRNA expression (normalized to NARS2): 0.1133
  MAPK14 mRNA expression (normalized to NARS2): 0.1336
  NFKB2 mRNA expression (normalized to NARS2): 0.02493
  TNFRSF12A mRNA expression (normalized to NARS2): 0.00974
  TRAF2 mRNA expression (normalized to NARS2): 0.009779
[1]; [5]
  BIRC2 mRNA expression (normalized to NARS2): 0.481
  HSP90B1 mRNA expression (normalized to NARS2): 1.9206
  IL6 mRNA expression (normalized to NARS2): 0.001894
  JUN mRNA expression (normalized to NARS2): 0.05506
  MAP4K4 mRNA expression (normalized to NARS2): 0.1321
  MAPK14 mRNA expression (normalized to NARS2): 0.1398
  NFKB2 mRNA expression (normalized to NARS2): 0.02821
  TNFRSF12A mRNA expression (normalized to NARS2): 0.01174
  TRAF2 mRNA expression (normalized to NARS2): 0.01106
[1]; [6]
  BIRC2 expression Z-Score: -0.6095
  HSP90B1 expression Z-Score: -0.9208
  IL6 expression Z-Score: -0.0450 and -0.04503
  JUN expression Z-Score: -0.5095
  MAP4K4 expression Z-Score: -1.5551 and -1.555
  MAPK14 expression Z-Score: -1.1124 and -1.112
  NFKB2 expression Z-Score: -1.3232 and -1.323
  TNFRSF12A expression Z-Score: -1.112
  TRAF2 expression Z-Score: -0.4386
[2]
  precipitation: precipitated at all concentrations tested

## SYTDVQDS-NH2 [Peptide 49]
Human His6-TWEAK protein; HBS-EP pH 7.4, Biacore 3000, NTA chip, read-out: ka
  kon: 4.88 M⁻¹ s⁻¹
Human His6-TWEAK protein; figure 6, HBS-EP pH 7.4, 6.25 µM to 800 µM peptide
  Kd: 533 µM

From article PMC7866087, “Evaluation of Computationally Designed Peptides against TWEAK, a Cytokine of the Tumour Necrosis Factor Ligand Family” (International Journal of Molecular Sciences, 2021)
